System: bacteria
Experiment: Residual test on coated carriers, 10 minute contact time (organism not named)
Type: cell-based
Settings: average over all inocula of the sample
From the text: Solutions of examples 12-01 to 12-05 were used to coat polycarbonate or glass carriers. Once dried, bacteria were inoculated on top of the coating and a log reduction of bacteria was obtained after a certain contact time. CFU=Colony Forming Units, TNTC=Too numerous to count, BCP=benzalkonium chloride powder, ThP=thymol powder

alkyldimethylbenzylammonium chloride [0.3 wt % benzalkonium chloride control]
Average Log 10 Reduction: 0.5
